Active and inactive are the calls of the source. No cut-off for these calls is given here.
Columns and labels:
TGF-beta receptor type-1 [1] = target: T1, TGF-beta receptor type-1 (Mus musculus, UniProt Q64729); assay: Inhibition of ALK5 in mouse NIH/3T3 cells by smad binding element reporter based assay; format: cell-based
T1 sequence (Q64729 whole entry): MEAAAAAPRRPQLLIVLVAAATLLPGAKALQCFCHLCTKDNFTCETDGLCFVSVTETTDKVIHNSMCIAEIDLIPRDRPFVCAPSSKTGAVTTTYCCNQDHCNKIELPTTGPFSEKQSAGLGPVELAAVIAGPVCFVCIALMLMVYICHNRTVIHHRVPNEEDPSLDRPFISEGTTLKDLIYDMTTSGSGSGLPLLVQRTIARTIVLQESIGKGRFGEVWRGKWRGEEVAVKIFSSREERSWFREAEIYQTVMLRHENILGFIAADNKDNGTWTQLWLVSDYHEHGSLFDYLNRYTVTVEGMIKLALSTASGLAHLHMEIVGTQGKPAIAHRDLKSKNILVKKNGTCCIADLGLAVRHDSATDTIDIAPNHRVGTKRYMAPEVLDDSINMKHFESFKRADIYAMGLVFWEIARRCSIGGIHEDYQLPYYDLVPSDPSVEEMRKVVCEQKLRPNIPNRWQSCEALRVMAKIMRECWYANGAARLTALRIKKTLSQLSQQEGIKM

[2] = Photostability of the compound assessed as compound remaining after exposure to sunlight; format: physicochemical
TGF-beta receptor type-1 [3] = target: T2, TGF-beta receptor type-1 (Homo sapiens, UniProt P36897); assay: Inhibition of ALK5
T2 sequence (P36897 whole entry): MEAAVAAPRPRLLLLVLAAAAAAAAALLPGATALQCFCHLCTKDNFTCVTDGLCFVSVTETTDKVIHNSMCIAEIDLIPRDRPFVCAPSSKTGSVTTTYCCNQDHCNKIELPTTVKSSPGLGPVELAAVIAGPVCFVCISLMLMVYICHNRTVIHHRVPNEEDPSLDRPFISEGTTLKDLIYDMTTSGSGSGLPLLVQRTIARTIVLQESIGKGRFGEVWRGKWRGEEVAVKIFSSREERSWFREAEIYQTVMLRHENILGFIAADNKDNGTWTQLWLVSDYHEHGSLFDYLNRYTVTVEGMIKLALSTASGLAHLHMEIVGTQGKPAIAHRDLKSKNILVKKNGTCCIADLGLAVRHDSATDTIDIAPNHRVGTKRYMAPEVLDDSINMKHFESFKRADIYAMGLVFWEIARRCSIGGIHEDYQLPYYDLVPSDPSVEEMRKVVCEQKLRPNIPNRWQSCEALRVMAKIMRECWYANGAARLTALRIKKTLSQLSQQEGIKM

Fibroblast [4] = assay: Inhibition of in TGFbeta-induced PAI1 gene expression in human fibroblasts; format: functional, cell-based
Rattus norvegicus [5] = assay: Inhibition of dermal injury-induced TGFbeta-1 gene expression in rat wound repair model treated topically after 7 days; format: functional, organism-based
Fibroblast [6] = assay: Inhibition of in TGFbeta-induced SMAD2/3 phosphorylation in human fibroblasts; format: functional, cell-based
Fibroblast [7] = assay: Inhibition of in TGFbeta-induced FSP1 gene expression in human fibroblasts; format: functional, cell-based
Activin receptor type-1B = target: T3, Activin receptor type-1B (Homo sapiens, UniProt P36896); assay: Inhibition of ALK4
T3 sequence (P36896 whole entry): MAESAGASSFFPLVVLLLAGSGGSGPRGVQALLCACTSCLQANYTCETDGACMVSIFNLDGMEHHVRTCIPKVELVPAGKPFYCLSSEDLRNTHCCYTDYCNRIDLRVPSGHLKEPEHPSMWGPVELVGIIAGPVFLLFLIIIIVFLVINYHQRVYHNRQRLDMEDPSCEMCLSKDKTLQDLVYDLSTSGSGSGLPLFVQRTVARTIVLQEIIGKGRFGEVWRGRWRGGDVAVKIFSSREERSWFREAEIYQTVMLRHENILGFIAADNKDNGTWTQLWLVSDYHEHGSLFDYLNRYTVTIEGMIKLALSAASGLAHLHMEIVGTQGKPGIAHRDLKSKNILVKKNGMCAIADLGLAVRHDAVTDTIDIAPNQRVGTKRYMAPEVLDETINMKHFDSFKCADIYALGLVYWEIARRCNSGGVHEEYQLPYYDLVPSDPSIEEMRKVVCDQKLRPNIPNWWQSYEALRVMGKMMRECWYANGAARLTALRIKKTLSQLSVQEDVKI

Rattus norvegicus [8] = assay: Inhibition of wound healing in rat wound repair model treated topically by measuring wound closure after 7 days; format: functional, organism-based
Rattus norvegicus [9] = assay: Inhibition of dermal injury-induced FSP1 gene expression in rat wound repair model treated topically after 7 days; format: functional, organism-based
Rattus norvegicus [10] = assay: Inhibition of dermal injury-induced FN1 gene expression in rat wound repair model treated topically after 7 days; format: functional, organism-based
Rattus norvegicus [11] = assay: Inhibition of dermal injury-induced CLO1A gene expression in rat wound repair model treated topically after 7 days; format: functional, organism-based
Rattus norvegicus [12] = assay: Inhibition of dermal injury-induced new collagen synthesis in rat wound repair model at 1% treated topically after 7 days; format: functional
[13] = target: Activin receptor type-1-like (Homo sapiens, UniProt P37023); assay: Inhibition of ALK1
Rattus norvegicus [14] = assay: Inhibition of dermal injury-induced CTGF gene expression in rat wound repair model treated topically after 7 days; format: functional, organism-based
Fibroblast [15] = assay: Inhibition of in TGFbeta-induced TGFbeta1 gene expression in human fibroblasts; format: functional, cell-based
Fibroblast [16] = assay: Inhibition of in TGFbeta-induced COL1A gene expression in human fibroblasts; format: functional, cell-based
Fibroblast [17] = assay: Inhibition of in TGFbeta-induced FN1 gene expression in human fibroblasts; format: functional, cell-based
Fibroblast [18] = assay: Inhibition of in TGFbeta-induced alpha-SMA gene expression in human fibroblasts; format: functional, cell-based
Rattus norvegicus [19] = assay: Inhibition of dermal injury-induced PAI1 gene expression in rat wound repair model treated topically after 7 days; format: functional, organism-based
Rattus norvegicus [20] = assay: Inhibition of dermal injury-induced alpha-SMA gene expression in rat wound repair model treated topically after 7 days; format: functional, organism-based
Fibroblast [21] = assay: Inhibition of in TGFbeta-induced CTGF gene expression in human fibroblasts; format: functional, cell-based
[22] = Photostability of the compound assessed as compound degradation after exposure to sunlight; format: physicochemical; conditions: read-out: Drug degradation

Sequence of Activin receptor type-1-like (P37023 whole entry): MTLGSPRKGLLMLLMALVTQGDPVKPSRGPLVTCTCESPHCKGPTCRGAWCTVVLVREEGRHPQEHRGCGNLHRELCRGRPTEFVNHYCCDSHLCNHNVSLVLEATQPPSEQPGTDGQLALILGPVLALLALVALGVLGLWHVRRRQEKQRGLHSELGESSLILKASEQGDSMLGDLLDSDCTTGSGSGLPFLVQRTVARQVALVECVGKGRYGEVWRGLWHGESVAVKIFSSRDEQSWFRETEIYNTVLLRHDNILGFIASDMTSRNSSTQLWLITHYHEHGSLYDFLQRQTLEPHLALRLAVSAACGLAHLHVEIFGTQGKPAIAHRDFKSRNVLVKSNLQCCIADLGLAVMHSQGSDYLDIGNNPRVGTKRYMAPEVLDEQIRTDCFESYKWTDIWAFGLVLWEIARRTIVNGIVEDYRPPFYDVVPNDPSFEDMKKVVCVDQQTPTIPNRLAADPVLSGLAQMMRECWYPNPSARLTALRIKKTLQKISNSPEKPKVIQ

Structure (SMILES)	IC50 (TGF-beta receptor type-1 [1]) [nM]	Stability [2] [%]	IC50 (TGF-beta receptor type-1 [3]) [nM]	also measured
Cc1cccc(-n2ncc(C)c2-c2ccc3ncn(C)c(=O)c3c2)n1	135	99	4	
Cc1cccc(-n2nc(C)cc2-c2ccc3ncn(C)c(=O)c3c2)n1	695		3	
Cc1cccc(-n2nccc2-c2ccc3ncn(C)c(=O)c3c2)n1	211	99.4	13	inhibition (Fibroblast [4]): Dose-dependent effect; inhibition (Rattus norvegicus [5]): Dose-dependent effect; inhibition (Fibroblast [6]): Dose-dependent effect; inhibition (Fibroblast [7]): Dose-dependent effect; IC50 (Activin receptor type-1B): 59 nM; inhibition (Rattus norvegicus [8]): inactive; inhibition (Rattus norvegicus [9]): Dose-dependent effect; inhibition (Rattus norvegicus [10]): Dose-dependent effect; inhibition (Rattus norvegicus [11]): Dose-dependent effect; inhibition (INH) (Rattus norvegicus [12]): 26%; IC50 [13]: > 5000 nM; inhibition (Rattus norvegicus [14]): Dose-dependent effect; inhibition (Fibroblast [15]): Dose-dependent effect; inhibition (Fibroblast [16]): Dose-dependent effect; inhibition (Fibroblast [17]): Dose-dependent effect; inhibition (Fibroblast [18]): Dose-dependent effect; inhibition (Rattus norvegicus [19]): Dose-dependent effect; inhibition (Rattus norvegicus [20]): Dose-dependent effect; inhibition (Fibroblast [21]): Dose-dependent effect
Cc1cccc(-c2n[nH]cc2-c2ccc3ncn(C)c(=O)c3c2)n1		32		degraded [22]: 68%
CCc1cc(-c2ccc3ncn(C)c(=O)c3c2)n(-c2cccc(C)n2)n1	274		1	
Cc1cccc(-n2nccc2-c2ccc3nc[nH]c(=O)c3c2)n1	73		6	
CCn1cnc2ccc(-c3ccnn3-c3cccc(C)n3)cc2c1=O	708	100	69	

Continued, in another order:

IC50 (TGF-beta receptor type-1 [1]) [nM]	Stability [2] [%]	IC50 (TGF-beta receptor type-1 [3]) [nM]	Structure (SMILES)	also measured
46	100	5	Cc1cccc(-n2nc3c(c2-c2ccc4nc[nH]c(=O)c4c2)CCC3)n1	
61		1	Cc1cccc(-n2ncc(C)c2-c2ccc3nc[nH]c(=O)c3c2)n1	
44	100	4	C=Cn1cnc2ccc(-c3ccnn3-c3cccc(C)n3)cc2c1=O	
47		2	CCc1cnn(-c2cccc(C)n2)c1-c1ccc2nc[nH]c(=O)c2c1	
